# Measurements from patent US11339171B2, “MDM2 inhibitors” (Gan & Lee Pharmaceuticals, priority 2017, dated 2022).
# What was measured:
# [1] = test system: human osteosarcoma cell line SJSA-1; test: Inhibition of proliferation of human osteosarcoma cell line SJSA-1 (DAPI staining, In Cell Analyzer); details: Homo sapiens, SJSA-1, 72 h, read-out: IC50 (nM), inhibitory activity on proliferation of human osteosarcoma cell line SJSA-1, SJSA-1, incubated 72 h
# MDM2 = target: T1, MDM2 (Homo sapiens, UniProt Q00987); test: Inhibition test of MDM2-P53 (GST-MDM2, Biotin-P53, Anti-GST-Tb, SA-XL665); assay type: binding
# T1 construct: made in house
# T1 sequence (Q00987 whole entry): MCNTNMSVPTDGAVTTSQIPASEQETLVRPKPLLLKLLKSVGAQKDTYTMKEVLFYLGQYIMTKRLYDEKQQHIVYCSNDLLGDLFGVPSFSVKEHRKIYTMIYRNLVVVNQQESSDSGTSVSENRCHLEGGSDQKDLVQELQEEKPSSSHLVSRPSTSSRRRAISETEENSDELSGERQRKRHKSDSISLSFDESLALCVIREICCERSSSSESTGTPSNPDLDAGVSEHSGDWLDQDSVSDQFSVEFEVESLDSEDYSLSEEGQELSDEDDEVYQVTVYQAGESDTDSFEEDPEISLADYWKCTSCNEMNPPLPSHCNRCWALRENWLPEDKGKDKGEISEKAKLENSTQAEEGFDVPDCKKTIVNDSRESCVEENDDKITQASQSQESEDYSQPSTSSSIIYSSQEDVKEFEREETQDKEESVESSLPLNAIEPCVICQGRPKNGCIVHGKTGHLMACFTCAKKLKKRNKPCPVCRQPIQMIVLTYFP
# In short: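 HTRF-type assay using 4 nM GST-MDM2 (final), Biotin-P53, SA-XL665 and anti-GST-Tb in PBS with 0.1% BSA, 5 mM DTT and 1 mM AEBSF. Compounds in 5-fold serial dilutions over twelve points; incubation 90 min at 25° C with shaking before plate-reader read-out.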
Compound,IC50 [1],IC50 (MDM2)
"COc1ncc(-c2nc3c(n2C(C)C)[C@@]2(C(=O)Nc4cc(Cl)ccc42)N(c2cc(Cl)cnc2C)C3=O)c(OC)n1 [Example S-42, (S)-6-chloro-5′-(5-chloro-2-methylpyridin-3-yl)-2′-(2,4-dimethoxypyrimidin-5-yl)-3′-isopropyl-3′H-spiro[dihydroindole-3,4′-pyrrolo[3,4-d]imidazole]-2,6′(5′H)-dione]",5.6 nM,1.51 nM
"COc1ccccc1-c1nc2c(n1C(C)C)[C@@]1(C(=O)Nc3cc(Cl)ccc31)N(c1cc(Cl)cn(C)c1=O)C2=O [Example S-43, (S)-6-chloro-5′-(5-chloro-1-methyl-2-oxo-1,2-dihydropyridin-3-yl)-3′-isopropyl-2′-(2-methoxyphenyl)-3′H-spiro[dihydroindole-3,4′-pyrrolo[3,4-d]imidazole]-2,6′(5′H)-dione]",564 nM,3.28 nM
"COc1cc(CN(C)C)ccc1-c1nc2c(n1C(C)C)[C@@]1(C(=O)Nc3cc(Cl)ccc31)N(c1cc(Cl)ccc1C)C2=O [Example S-47, (S)-6-chloro-5′-(5-chloro-2-methylphenyl)-2′-(4-((dimethylamino)methyl)-2-methoxyphenyl)-3′-isopropyl-3′H-spiro[dihydroindole-3,4′-pyrrolo[3,4-d]imidazole]-2,6′(5′H)-dione]",14 nM,4.16 nM
"COc1cc(N)ccc1-c1nc2c(n1C(C)C)[C@@]1(C(=O)Nc3cc(Cl)ccc31)N(c1cc(Cl)ccc1C)C2=O [Example S-49, (S)-2′-(4-amino-2-methoxyphenyl)-6-chloro-5′-(5-chloro-2-methylphenyl)-3′-isopropyl-3′H-spiro[dihydroindole-3,4′-pyrrolo[3,4-d]imidazole]-2,6′(5′H)-dione]",5.92 nM,1.72 nM
"COc1ncc(-c2cc3c(n2C(C)C)[C@@]2(C(=O)Nc4cc(Cl)ccc42)N(c2cc(Cl)ccc2C)C3=O)c(OC)n1 [Example S-50, (S)-6-chloro-5′-(5-chloro-2-methylphenyl)-2′-(2,4-dimethoxypyrimidin-5-yl)-1′-isopropyl-1′H-spiro[dihydroindole-3,6′-pyrrolo[3,4-b]pyrrole]-2,4′(5′H)-dione]",1320 nM,85.5 nM
"COc1ncc(-c2nc3c(n2C(C)C)[C@@]2(C(=O)Nc4cc(Cl)ccc42)N(c2cc(C)cc(Cl)c2)C3=O)c(OC)n1 [Example S-51, (S)-6-chloro-5′-(3-chloro-5-methylphenyl)-2′-(2,4-dimethoxypyrimidin-5-yl)-3′-isopropyl-3′H-spiro[dihydroindole-3,4′-pyrrolo[3,4-d]imidazole]-2,6′(5′H)-dione]",62.6 nM,4.36 nM
"COc1ccc(-c2nc3c(n2C(C)C)[C@@]2(C(=O)Nc4cc(Cl)ccc42)N(c2cc(Cl)c(=O)n(C)c2)C3=O)c(OC)c1 [Example S-52, (S)-6-chloro-5′-(5-chloro-1-methyl-6-oxo-1,6-dihydropyridin-3-yl)-2′-(2,4-dimethoxyphenyl)-3′-isopropyl-3′H-spiro[dihydroindole-3,4′-pyrrolo[3,4-d]imidazole]-2,6′(5′H)-dione]",467 nM,0.87 nM
"COc1ccccc1-c1nc2c(n1C(C)C)[C@@]1(C(=O)Nc3cc(Cl)ccc31)N(c1cc(Cl)c(=O)n(C)c1)C2=O [Example S-53, (S)-6-chloro-5′-(5-chloro-1-methyl-6-oxo-1,6-dihydropyridin-3-yl)-3′-isopropyl-2′-(2-methoxyphenyl)-3′H-spiro[dihydroindole-3,4′-pyrrolo[3,4-d]imidazole]-2,6′(5′H)-dione]",213 nM,0.84 nM
"CNC(=O)c1ccc(-c2nc3c(n2C(C)C)[C@@]2(C(=O)Nc4cc(Cl)ccc42)N(c2cc(Cl)ccc2C)C3=O)c(OC)c1 [Example S-54, (S)-4-(6-chloro-5′-(5-chloro-2-methylphenyl)-3′-isopropyl-2,6′-dioxo-5′,6′-dihydro-3′H-spiro[dihydroindole-3,4′-pyrrolo[3,4-d]imidazole]-2′-yl)-3-methoxy-N-methylbenzamide]",468 nM,2.25 nM
"COc1ncc(-c2nc3c(n2C(C)C)[C@@]2(C(=O)Nc4cc(Cl)ccc42)N(c2cccc(C)c2)C3=O)c(OC)n1 [Example S-55, (S)-6-chloro-2′-(2,4-dimethoxypyrimidin-5-yl)-3′-isopropyl-5′-(m-tolyl)-3′H-spiro[dihydroindole-3,4′-pyrrolo[3,4-d]imidazole]-2,6′(5′H)-dione]",117 nM,4.25 nM
"COc1cccc(F)c1-c1nc2c(n1C(C)C)[C@@]1(C(=O)Nc3cc(Cl)ccc31)N(c1cc(Cl)ccc1C)C2=O [Example S-57, (S)-6-chloro-5′-(5-chloro-2-methylphenyl)-2′-(2-fluoro-6-methoxyphenyl)-3′-isopropyl-3′H-spiro[dihydroindole-3,4′-pyrrolo[3,4-d]imidazole]-2,6′(5′H)-dione]",11.8 nM,3.04 nM
"COc1cc(Cl)cc(N2C(=O)c3nc(-c4cnc(OC)nc4OC)n(C(C)C)c3[C@@]23C(=O)Nc2cc(Cl)ccc23)c1 [Example S-58, (S)-6-chloro-5′-(3-chloro-5-methoxyphenyl)-2′-(2,4-dimethoxypyrimidin-5-yl)-3′-isopropyl-3′H-spiro[dihydroindole-3,4′-pyrrolo[3,4-d]imidazole]-2,6′(5′H)-dione]",50.8 nM,11.4 nM
"COc1ccc(C)cc1-c1nc2c(n1C(C)C)[C@@]1(C(=O)Nc3cc(Cl)ccc31)N(c1cc(Cl)ccc1C)C2=O [Example S-62, (S)-6-chloro-5′-(5-chloro-2-methylphenyl)-3′-isopropyl-2′-(2-methoxy-5-methylphenyl)-3′H-spiro[dihydroindole-3,4′-pyrrolo[3,4-d]imidazole]-2,6′(5′H)-dione]",10.5 nM,1.61 nM
"COc1ccc(N2C(=O)c3nc(-c4ccccc4OC)n(C(C)C)c3[C@@]23C(=O)Nc2cc(Cl)ccc23)cc1Cl [Example S-63, (S)-6-chloro-5′-(3-chloro-4-methoxyphenyl)-3′-isopropyl-2′-(2-methoxyphenyl)-3′H-spiro[dihydroindole-3,4′-pyrrolo[3,4-d]imidazole]-2,6′(5′H)-dione]",77.6 nM,1.16 nM
"COc1ccc(-c2nc3c(n2C(C)C)[C@@]2(C(=O)Nc4cc(Cl)ccc42)N(c2cc(Cl)ccc2C)C3=O)cc1 [Example S-64, (S)-6-chloro-5′-(5-chloro-2-methylphenyl)-3′-isopropyl-2′-(4-methoxyphenyl)-3′H-spiro[dihydroindole-3,4′-pyrrolo[3,4-d]imidazole]-2,6′(5′H)-dione]",726 nM,11.8 nM
"COc1cc(N)ccc1-c1nc2c(n1C(C)C)[C@@]1(C(=O)Nc3cc(Cl)ccc31)N(c1cc(Cl)ccc1F)C2=O [Example S-66, (S)-2′-(4-amino-2-methoxyphenyl)-6-chloro-5′-(5-chloro-2-fluorophenyl)-3′-isopropyl-3′H-spiro[dihydroindole-3,4′-pyrrolo[3,4-d]imidazole]-2,6′(5′H)-dione]",39.6 nM,1.5 nM
"COc1cc(N)ccc1-c1nc2c(n1C(C)C)[C@@]1(C(=O)Nc3cc(Cl)ccc31)N(c1cc(F)cc(Cl)c1)C2=O [Example S-67, (S)-2′-(4-amino-2-methoxyphenyl)-6-chloro-5′-(3-chloro-5-fluorophenyl)-3′-isopropyl-3′H-spiro[dihydroindole-3,4′-pyrrolo[3,4-d]imidazole]-2,6′(5′H)-dione]",20.8 nM,1.22 nM
"COc1cc(C(=O)N(C)C)ccc1-c1nc2c(n1C(C)C)[C@@]1(C(=O)Nc3cc(Cl)ccc31)N(c1cc(Cl)ccc1C)C2=O [Example S-68, (S)-4-(6-chloro-5′-(5-chloro-2-methylphenyl)-3′-isopropyl-2,6′-dioxo-5′,6′-dihydro-3′H-spiro[dihydroindole-3,4′-pyrrolo[3,4-d]imidazole]-2′-yl)-3-methoxy-N,N-dimethylbenzamide]",1700 nM,2.32 nM
"COc1ccc(CC(=O)N(C)C)cc1-c1nc2c(n1C(C)C)[C@@]1(C(=O)Nc3cc(Cl)ccc31)N(c1cc(Cl)ccc1C)C2=O [Example S-70, (S)-2-(3-(6-chloro-5′-(5-chloro-2-methylphenyl)-3′-isopropyl-2,6′-dioxo-5′,6′-dihydro-3′H-spiro[dihydroindole-3,4′-pyrrolo[3,4-d]imidazole]-2′-yl)-4-methoxyphenyl)-N,N-dimethylacetamide]",73.6 nM,0.94 nM
"COc1ccc(N2C(=O)c3nc(-c4ccc(N)cc4OC)n(C(C)C)c3[C@@]23C(=O)Nc2cc(Cl)ccc23)cc1Cl [Example S-71, (S)-2′-(4-amino-2-methoxyphenyl)-6-chloro-5′-(3-chloro-4-methoxyphenyl)-3′-isopropyl-3′H-spiro[dihydroindole-3,4′-pyrrolo[3,4-d]imidazole]-2,6′(5′H)-dione]",292 nM,2.96 nM
"COc1cc(N)ccc1-c1nc2c(n1C(C)C)[C@@]1(C(=O)Nc3cc(Cl)ccc31)N(c1ccc(F)c(Cl)c1)C2=O [Example S-73, (S)-2′-(4-amino-2-methoxyphenyl)-6-chloro-5′-(3-chloro-4-fluorophenyl)-3′-isopropyl-3′H-spiro[dihydroindole-3,4′-pyrrolo[3,4-d]imidazole]-2,6′(5′H)-dione]",251 nM,1.1 nM
"COc1cc(N)c(C)cc1-c1nc2c(n1C(C)C)[C@@]1(C(=O)Nc3cc(Cl)ccc31)N(c1cc(Cl)ccc1C)C2=O [Example S-74, (S)-2′-(4-amino-2-methoxy-5-methylphenyl)-6-chloro-5′-(5-chloro-2-methylphenyl)-3′-isopropyl-3′H-spiro[dihydroindole-3,4′-pyrrolo[3,4-d]imidazole]-2,6′(5′H)-dione]",7.85 nM,0.98 nM
